Laboratory results from patent EP3360539A1, “PHARMACEUTICAL FORMULATION” (SapioTec GmbH, priority 2017, dated 2018).
Converted amounts (≈) assume the structure as drawn.

What was measured:
[1] = pH 9
[2] = in HPBCD (10%); Fuchs et al. 2014; cited from earlier work

## O=C1CN(/N=C/c2ccc(-c3ccc([N+](=O)[O-])cc3)o2)C(O)=N1 [Dantrolen-Natrium]
[1]
  Löslichkeit: bemerkenswerte Steigerung der Löslichkeit
physchem; 25% hpbcd in deionized water, Gelöstes Dantrolen-Natrium
  solubility thermodynamic at 24 h: 15.6 mg/mL (≈ 49.6 mM)
physchem; 25% hpbcd in deionized water, pH 9, Gelöstes Dantrolen-Natrium
  solubility thermodynamic at 24 h: 16 mg/mL (≈ 50.9 mM)
physchem; 25% hpbcd, 1% tris, water, pH 9, Gelöstes Dantrolen-Natrium
  solubility thermodynamic at 24 h: 14.4 mg/mL (≈ 45.8 mM)
physchem; water, 25% hpbcd, 2% glycerol, pH 9, organic solvent or mixture, Gelöstes Dantrolen-Natrium
  solubility thermodynamic at 24 h: 9.5 mg/mL (≈ 30.2 mM)
physchem; water, 25% hpbcd, arginine, pH 9, Gelöstes Dantrolen-Natrium
  solubility thermodynamic at 24 h: 8.5 mg/mL (≈ 27 mM)
physchem; water, 25% hpbcd, edta, pH 9, Gelöstes Dantrolen-Natrium
  solubility thermodynamic at 24 h: 3.6 mg/mL (≈ 11.5 mM)
physchem; water, 25% hpbcd, lysine, pH 9, Gelöstes Dantrolen-Natrium
  solubility thermodynamic at 24 h: 15.7 mg/mL (≈ 50 mM)
[2]
  Konzentration des gelösten Dantrolens in Lösung: 0,137 mg/ml
